Assay results as given in patent US10568328B2, “Methods and compositions for weed control” (Monsanto Technology LLC, priority 2013, dated 2020).

Test system: Amaranthus palmeri plants (R22 glyphosate resistant biotype)
Assay: OEP80 trigger dsRNA polynucleotides followed by 2X WMAX, injury rating (FIG. 1)
Assay type: in vivo
Details: 8 nmol/plant, 0.5-1.0 percent Silwet L-77 and buffer, 2X WMAX one day later; rated 14 days after WMAX; baseline 40 percent
Method: FIG. 1. Treatment of Amaranthus palmeri with dsRNA trigger polynucleotides targeting OEP80.
The following procedure is used for all assays described in this example. Approximately four-week old Amaranthus palmeri plants (glyphosate-resistant Palmer amaranth, “R-22”) are used in this assay. Plants are treated with 0.5-1.0 percent Silwet L-77 solution freshly made with ddH2O. Two fully expanded leaves per plant (one cotyledon, one true leaf) are treated with the polynucleotide/Silwet L-77 solution. Final concentration for each dsRNA polynucleotide was 25 microM) unless otherwise stated. Twenty microliters of the solution are applied to the top surface of each of the two pre-treated leaves to provide a total of 40 microliters (1-4 nmol polynucleotide) for each plant.
Spray solutions are prepared the same day as spraying. Single oligonucleotide molecules are applied at rates between 0.04 and 0.18 mg/ml in 20 mM potassium phosphate buffer (pH 6.8) are added to spray solutions 15 to 50 minutes before spraying. One-to-two-ml spray solutions were applied using a custom low-dead-volume sprayer (“milli applicator”) at 8-30 gpa (gallons per acre) to one-to-four inch tall plants. Treated plants are place in a greenhouse set for either a 26.7/21.1° C. or 29.4/21.1° C. 14/10 hour temperature and supplemental light schedule. The amount of response relative to unsprayed treatments is collected at various time intervals up to 21 days after treatment.
A common spray nozzle used for all applications made with the track sprayer is the Turbo Teejet air induction nozzle (015) nozzle with air pressure set at a minimum of 20 psi (pounds per square inch or […]). This style nozzle is currently being utilized to lessen shear forces that can damage or otherwise change large macromolecules that can seen with other nozzle styles. The height of the spray nozzle is to be 16-18 inches above top of plant material. Treatments are to be made when plants reach the desired size, height or leaf stage.
Application rates are chosen so as to achieve percent control ratings in the range of 50 percent at the lowest rate to 90 percent control at the highest rate. The rates in this control range provide the best possible efficacy comparisons among formulations, allowing separation of relative performance of test samples. The rate of herbicide used in these studies is typically at the manufacturer's recommended use rate. On occasion lower or higher rates may be necessary depending on test objectives. The rate structure used for a given test will be dependent on the environmental conditions at the time of spray application (time of year), the plant species being treated (highly susceptible or tough to kill) and age (or size) of plants to be treated.
Amaranthus palmeri plants (R22 glyphosate resistant biotype) were treated following the protocol described in Example 3. Trigger dsRNA polynucleotides shown in Table 5 (SEQ ID NO: 1535-1573, plus strand sequence illustrated) are targeting the A. palmeri OEP80 gene coding region (SEQ ID NO: 365). The polynucleotides were topically applied at 8 nmol/plant in a composition comprising 0.5-1.0 percent Silwet L-77 and buffer followed one day later by treatment with 2× WeatherMAX (WMAX). Injury rating of the treated plants was conducted 14 days after the WMAX treatment. The control treatments were buffer alone and 2 rates (4 nmol and 8 nmol) of a trigger polynucleotide (oligo 5.3) targeting the A. palmeri EPSPS coding gene sequence. The average baseline level of injury effect of buffer plus WMAX was set at 40 percent for this experiment. […] Additionally, 4 regions of the target gene sequence were identified in which the polynucleotides in those regions were particularly effective, these regions are between nucleotide positions 369-701, 1016-1168, 1364-1622 and 1683-1792 of SEQ ID NO: 365.

With “T25452: A. palmeri OEP80 trigger dsRNA polynucleotide, SEQ ID NO: 1542 (GGAGGCATTAATGGCATTGAAAGCTTGCCGGGCGAATTCAGCTTTGACTGTGC; double-stranded RNA trigger, chemistry not given here, further chemistry not given here; listed as Amaranthus palmeri) [Oligo T25452]” the “Injury rating: enhancement of the effect of WMAX (FIG. 1)” value (“Injury rating: enhancement” for short) was “able to enhance the effect of WMAX”.

For “T25455: A. palmeri OEP80 trigger dsRNA polynucleotide, SEQ ID NO: 1545 (GCGAAGGAGCTAATGTTCTCCCTTCCAAGTTTGTAGAGGATTCATTTC; double-stranded RNA trigger, chemistry not given here, further chemistry not given here; listed as Amaranthus palmeri) [Oligo T25455]”, the “Injury rating: enhancement” value was “able to enhance the effect of WMAX”.

For “T25456: A. palmeri OEP80 trigger dsRNA polynucleotide, SEQ ID NO: 1546 (GTGATGGATATGGGAAAGTGGTCAATATCAGGCGTTTGGATGAAGTGATTGATTC; double-stranded RNA trigger, chemistry not given here, further chemistry not given here; listed as Amaranthus palmeri) [Oligo T25456]”, the “Injury rating: enhancement” value was “able to enhance the effect of WMAX”.

With “T25457: A. palmeri OEP80 trigger dsRNA polynucleotide, SEQ ID NO: 1547 (GATTCTATAAATGGATGGTACATGGAGCGTGGTCTTTTTGGCATGGTTTC; double-stranded RNA trigger, chemistry not given here, further chemistry not given here; listed as Amaranthus palmeri) [Oligo T25457]” the “Injury rating: enhancement” value was “able to enhance the effect of WMAX”.

For “T25464: A. palmeri OEP80 trigger dsRNA polynucleotide, SEQ ID NO: 1554 (GTTTCTCGGCTGGTGGTGGTATTTCGAGCGGGATAACGAGCGGACCGC; double-stranded RNA trigger, chemistry not given here, further chemistry not given here; listed as Amaranthus palmeri) [Oligo T25464]”, the “Injury rating: enhancement” value was “able to enhance the effect of WMAX”.

For “T25465: A. palmeri OEP80 trigger dsRNA polynucleotide, SEQ ID NO: 1555 (GCTATCAGGTTTAATTGGAAGCTTTGCATATTCTCACAGGAATCTGTTTGGAAAAAATC; double-stranded RNA trigger, chemistry not given here, further chemistry not given here; listed as Amaranthus palmeri) [Oligo T25465]”, the “Injury rating: enhancement” value was “able to enhance the effect of WMAX”.

For “T25466: A. palmeri OEP80 trigger dsRNA polynucleotide, SEQ ID NO: 1556 (GAAAAAATCAAAAAGTAAATGTCTCTCTTGAAAGAGGCCAAATCGACTCTATCTTCC; double-stranded RNA trigger, chemistry not given here, further chemistry not given here; listed as Amaranthus palmeri) [Oligo T25466]”, the “Injury rating: enhancement” value was “able to enhance the effect of WMAX”.

“T25471: A. palmeri OEP80 trigger dsRNA polynucleotide, SEQ ID NO: 1561 (GACTTACGTTTCAGCATGCTGGTGTCCGTGATGAAAAAGGGAACCCCGTC; double-stranded RNA trigger, chemistry not given here, further chemistry not given here; listed as Amaranthus palmeri) [Oligo T25471]” was tested, and the “Injury rating: enhancement” value was “able to enhance the effect of WMAX”.

“T25473: A. palmeri OEP80 trigger dsRNA polynucleotide, SEQ ID NO: 1563 (GCTGCTTGCCAAAGGCGAGTGTGCCTACACGGGTGACTTAGGATCCTCAATGTTAGTC; double-stranded RNA trigger, chemistry not given here, further chemistry not given here; listed as Amaranthus palmeri) [Oligo T25473]” was tested, and the “Injury rating: enhancement” value was “able to enhance the effect of WMAX”.

For “T25474: A. palmeri OEP80 trigger dsRNA polynucleotide, SEQ ID NO: 1564 (GTCTTAAGCATGGAACAAGGTCTTCCTATCTATCCTGAGTGGCTGTGTTTTAATC; double-stranded RNA trigger, chemistry not given here, further chemistry not given here; listed as Amaranthus palmeri) [Oligo T25474]”, the “Injury rating: enhancement” value was “able to enhance the effect of WMAX”.

For “T25475: A. palmeri OEP80 trigger dsRNA polynucleotide, SEQ ID NO: 1565 (GTTTTAATCGAGTCAACGCTCGTGCTAGGTCAGGGGTGGACATTGGTCCAGC; double-stranded RNA trigger, chemistry not given here, further chemistry not given here; listed as Amaranthus palmeri) [Oligo T25475]”, the “Injury rating: enhancement” value was “able to enhance the effect of WMAX”.

“T25477: A. palmeri OEP80 trigger dsRNA polynucleotide, SEQ ID NO: 1567 (GTTTGCGATCGGTGGTACAAATAGTGTGAGAGGATATGAAGAAGGTGCCGTTGGC; double-stranded RNA trigger, chemistry not given here, further chemistry not given here; listed as Amaranthus palmeri) [Oligo T25477]” was tested, and the “Injury rating: enhancement” value was “able to enhance the effect of WMAX”.

“T25478: A. palmeri OEP80 trigger dsRNA polynucleotide, SEQ ID NO: 1568 (GCTCAGGCCTTTCATACGTAGTGGGCTGTGGAGAAGTTTCCTTCCCTCTGTATGGTC; double-stranded RNA trigger, chemistry not given here, further chemistry not given here; listed as Amaranthus palmeri) [Oligo T25478]” was tested, and the “Injury rating: enhancement” value was “able to enhance the effect of WMAX”.

In the case of “T29213: A. palmeri OEP80 trigger dsRNA polynucleotide, SEQ ID NO: 1573 (GGATATGAAGAAGGTGCCGTTGGC; double-stranded RNA trigger, chemistry not given here, further chemistry not given here; listed as Amaranthus palmeri) [Oligo T29213]”, the “Injury rating: enhancement” value is reported as “able to enhance the effect of WMAX”.

B1: T25454: A. palmeri OEP80 trigger dsRNA polynucleotide, SEQ ID NO: 1544 (nucleic acid, listed as Amaranthus palmeri)
chain: GATACTAGGGATGGTATTAGATTGGTCTTTCAGGTAGAACCAAACCAGGAGTTTAGAGGACTGGTGTGC
modifications: double-stranded RNA trigger, chemistry not given here, further chemistry not given here
B1 was tested, and the “Injury rating: enhancement” value was “able to enhance the effect of WMAX”.

B2: T25472: A. palmeri OEP80 trigger dsRNA polynucleotide, SEQ ID NO: 1562 (nucleic acid, listed as Amaranthus palmeri)
chain: GTCATAAAAGATTTCTACAACAGCGCTCTTACGGCAAGTGGGAATACTCATGATAATATGC
modifications: double-stranded RNA trigger, chemistry not given here, further chemistry not given here
For B2, the “Injury rating: enhancement” value was “able to enhance the effect of WMAX”.
